By Ki is commonly meant the equilibrium dissociation constant of an inhibitor or competing ligand from its target. In general, Emax refers to the greatest response seen or fitted, relative to the assay's reference. One may read the EC50 as the concentration giving half of the maximal effect.

Consider 4 compounds from patent US20230265151A1, “GIP/GLP1 CO-AGONIST COMPOUNDS” (priority 2020, published 2023).

Structures are written as SMILES. Where two headings read alike, the source gives them in different places.

Test [1] has as its target T1, human GLP-1 receptor (hGLP-1R) (Homo sapiens, UniProt P43220).
T1 construct: expressed in transfected cells; crude membranes
Briefly: [125I]-GLP-1 binding, SPA with membranes of HEK293 cells expressing hGLP-1R. As to conditions: human GLP-1R; geometric mean (SEM, n); read-out: Binding Affinity Ki, nM (SEM, n) hGLP-1R.

Test [2] has as its target T2, human GIP receptor (hGIPR) (Homo sapiens, UniProt P48546).
T2 construct: expressed in transfected cells; crude membranes
T2 sequence (P48546 22-466): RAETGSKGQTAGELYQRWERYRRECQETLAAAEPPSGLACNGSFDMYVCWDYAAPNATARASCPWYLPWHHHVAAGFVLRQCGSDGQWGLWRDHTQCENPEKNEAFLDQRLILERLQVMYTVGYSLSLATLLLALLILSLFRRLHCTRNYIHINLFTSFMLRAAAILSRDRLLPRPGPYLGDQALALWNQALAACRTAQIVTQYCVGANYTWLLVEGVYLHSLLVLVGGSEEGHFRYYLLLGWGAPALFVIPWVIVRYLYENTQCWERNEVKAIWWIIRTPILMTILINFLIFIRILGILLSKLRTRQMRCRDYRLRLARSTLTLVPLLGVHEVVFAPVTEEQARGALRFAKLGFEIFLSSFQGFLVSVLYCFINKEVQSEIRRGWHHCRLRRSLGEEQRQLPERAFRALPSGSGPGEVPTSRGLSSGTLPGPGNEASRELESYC
Briefly: [125I]-GIP binding, SPA with membranes of CHO cells expressing hGIPR. As to conditions: human GIPR; geometric mean (SEM, n); read-out: Binding Affinity Ki, nM (SEM, n) hGIPR.

The next test has as its target T3, hGIPR (Homo sapiens, UniProt P48546).
T3 construct: expressed in transfected cells
T3 sequence (P48546 22-466): T2 sequence (P48546 22-466)
Briefly: Functional cAMP formation (HTRF) in HEK-293 clonal cells expressing hGIPR, 0.1% bovine casein, without or with 1.0% human serum albumin. Type of test: cell-based. Particulars: 37° C.; for Emax: percent of maximal response to GIP(1-42)NH2, read-out: hGIPR Emax, % ± SEM; for EC50: cAMP, read-out: hGIPR EC50, nM (SEM, n). In short, it runs like this:
(§1)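 Cells were stimulated with peptide for 30 min at 37° C, then intracellular cAMP was measured by competitive HTRF (665/620 nm ratio) and converted to nM using a cAMP standard curve. Relative EC50 and Emax came from four-parameter logistic fits of percent maximal response against peptide concentration.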
Background: Cyclic AMP is a second messenger, typically raised through Gs and lowered through Gi signalling.

Another test concerns the target T4, hGCGR (Homo sapiens, UniProt P47871).
T4 construct: expressed in transfected cells
Briefly: Functional cAMP formation (HTRF) in HEK-293 clonal cells expressing hGCGR, 0.1% bovine casein, without or with 1.0% human serum albumin. Type of test: cell-based. As to conditions: 37° C., read-out: hGCGR EC50, nM (SEM, n). In short, it runs like this: as §1

A further test deals with hGLP-1R (Homo sapiens, UniProt P43220). Briefly: Functional cAMP formation (HTRF) in HEK-293 clonal cells expressing hGLP-1R, 0.1% bovine casein, without or with 1.0% human serum albumin. The format is cell-based. More on the design: expressed in transfected cells. As to conditions: 37° C.; for Emax: percent of maximal response to GLP-1(7-36)NH2, read-out: hGLP-1R Emax, % ± SEM; for EC50: cAMP, read-out: hGLP-1R EC50, nM (SEM, n). The method in brief: as §1

Setting [3] is: HEK293, cAMP, 0.1% bovine casein and 1.0% human serum albumin.
Setting [4] is: 0.1% bovine casein (no human serum albumin), geometric mean.
Setting [5] is: 0.1% bovine casein and 1.0% human serum albumin, geometric mean (SEM, n).
The mark [6] stands for this setting: cAMP, 0.1% bovine casein (no human serum albumin), geometric mean.
Setting [7] is: cAMP, 0.1% bovine casein and 1.0% human serum albumin, geometric mean (SEM, n).
The mark [8] stands for this setting: HEK293, cAMP, 0.1% bovine casein, arithmetic mean.
Setting [9] is: HEK293, 0.1% bovine casein and 1.0% human serum albumin.
The mark [10] stands for this setting: 0.1% bovine casein and 1.0% human serum albumin, geometric mean.

T1 sequence (P43220 24-463): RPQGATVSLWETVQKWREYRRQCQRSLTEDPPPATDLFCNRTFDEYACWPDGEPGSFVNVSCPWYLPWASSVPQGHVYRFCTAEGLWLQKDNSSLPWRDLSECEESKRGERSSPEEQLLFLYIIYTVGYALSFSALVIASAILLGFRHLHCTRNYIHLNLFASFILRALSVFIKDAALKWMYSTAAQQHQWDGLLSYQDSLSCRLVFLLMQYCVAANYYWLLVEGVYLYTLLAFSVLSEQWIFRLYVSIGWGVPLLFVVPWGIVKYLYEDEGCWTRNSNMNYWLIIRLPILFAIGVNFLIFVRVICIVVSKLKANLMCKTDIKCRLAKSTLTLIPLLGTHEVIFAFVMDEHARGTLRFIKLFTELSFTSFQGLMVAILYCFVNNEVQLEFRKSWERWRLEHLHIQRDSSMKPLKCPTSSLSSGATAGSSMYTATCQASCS
Chain of hGLP-1R (P43220 24-463): as above
T4 sequence (P47871 26-477): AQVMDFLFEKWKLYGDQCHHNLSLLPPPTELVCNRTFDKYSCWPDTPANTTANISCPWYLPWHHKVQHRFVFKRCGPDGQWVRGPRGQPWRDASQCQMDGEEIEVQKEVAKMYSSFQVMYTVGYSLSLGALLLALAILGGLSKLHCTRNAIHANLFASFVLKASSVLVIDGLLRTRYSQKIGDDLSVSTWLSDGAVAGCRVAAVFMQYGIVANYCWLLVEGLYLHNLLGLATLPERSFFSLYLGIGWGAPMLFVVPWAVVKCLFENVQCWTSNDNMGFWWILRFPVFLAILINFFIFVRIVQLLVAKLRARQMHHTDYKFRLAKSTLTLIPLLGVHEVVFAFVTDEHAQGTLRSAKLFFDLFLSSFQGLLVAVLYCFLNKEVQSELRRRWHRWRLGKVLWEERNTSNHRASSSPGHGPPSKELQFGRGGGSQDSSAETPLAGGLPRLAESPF

For `CC[C@H](C)[C@H](NC(=O)[C@H](CC(C)C)NC(=O)[C@](C)(Cc1ccc(O)cc1)NC(=O)[C@H](CCCCNC(=O)COCCOCCNC(=O)CC[C@H](NC(=O)COCCOCCNC(=O)CC[C@H](NC(=O)CCCCCCCCCCCCC(=O)O)C(=O)O)C(=O)O)NC(=O)[C@@H](NC(=O)[C@H](Cc1ccccc1)NC(=O)[C@H](CCCN)NC(=O)C(C)(C)NC(=O)[C@H](CCC(N)=O)NC(=O)[C@H](C)NC(=O)[C@H](CCC(N)=O)NC(=O)[C@H](CCCN)NC(=O)[C@H](CC(=O)O)NC(=O)[C@H](CC(C)C)NC(=O)[C@](C)(CC(C)C)NC(=O)[C@@H](NC(=O)C(C)(C)NC(=O)[C@H](Cc1ccncc1)NC(=O)[C@H](CC(=O)O)NC(=O)[C@H](CO)NC(=O)[C@@H](NC(=O)[C@](C)(Cc1ccccc1F)NC(=O)[C@@H](NC(=O)CNC(=O)[C@H](CCC(=O)O)NC(=O)C(C)(C)NC(=O)[C@@H](N)Cc1ccc(O)cc1)[C@@H](C)O)[C@@H](C)O)[C@@H](C)CC)[C@@H](C)CC)C(=O)N[C@@H](CCCCNC(=O)COCCOCCNC(=O)CC[C@H](NC(=O)COCCOCCNC(=O)CC[C@H](NC(=O)CCCCCCCCCCCCC(=O)O)C(=O)O)C(=O)O)C(=O)NCC(=O)NCC(=O)N1CCC[C@H]1C(=O)N[C@@H](CO)C(=O)N[C@@H](CO)C(=O)NCC(=O)N[C@@H](C)C(=O)N1CCC[C@H]1C(=O)N1CCC[C@H]1C(=O)N1CCC[C@H]1C(=O)N[C@@H](CO)C(N)=O` [Example 484], the Ki was 0.268 nM in test [1] and 0.0296 nM in test [2]. For the same compound, the results for the Emax at hGIPR (setting [3]) and on hGLP-1R (setting [8]) were 91.3% and 118%, respectively. For the same compound, the EC50 on hGIPR (setting [4]) is 0.0136 nM; at hGIPR (setting [5]), 0.453 nM; on hGCGR (setting [6]), more than 9950 nM; on hGCGR (setting [7]), more than 9950 nM; at hGLP-1R (setting [4]), 0.17 nM.

Take `CCCCCCCCCCCC(=O)N[C@@H](CCC(=O)NCCOCCOCC(=O)NCCOCCOCC(=O)NCCCC[C@H](NC(=O)[C@H](CCCN)NC(=O)[C@H](CC(=O)O)NC(=O)[C@H](CC(C)C)NC(=O)[C@](C)(CC(C)C)NC(=O)[C@@H](NC(=O)[C@H](CO)NC(=O)[C@H](Cc1ccncc1)NC(=O)[C@H](CC(=O)O)NC(=O)[C@H](CO)NC(=O)[C@@H](NC(=O)[C@](C)(Cc1ccccc1F)NC(=O)[C@@H](NC(=O)CNC(=O)[C@H](CCC(=O)O)NC(=O)C(C)(C)NC(=O)[C@@H](N)Cc1ccc(O)cc1)[C@@H](C)O)[C@@H](C)O)[C@@H](C)CC)C(=O)N[C@@H](C)C(=O)N[C@@H](CCC(N)=O)C(=O)NC(C)(C)C(=O)N[C@@H](CCCCNC(=O)COCCOCCNC(=O)COCCOCCNC(=O)CC[C@H](NC(=O)CCCCCCCCCCC)C(=O)O)C(=O)N[C@@H](Cc1ccccc1)C(=O)N[C@H](C(=O)N[C@H](CCC(=O)O)C(=O)N[C@@](C)(Cc1ccc(O)cc1)C(=O)N[C@@H](CC(C)C)C(=O)N[C@H](C(=O)N[C@@H](CCCN)C(=O)NCC(=O)NCC(=O)N1CCC[C@H]1C(=O)N[C@@H](CO)C(=O)N[C@@H](CO)C(=O)NCC(=O)N[C@@H](C)C(=O)N1CCC[C@H]1C(=O)N1CCC[C@H]1C(=O)N1CCC[C@H]1C(=O)N[C@@H](CO)C(N)=O)[C@@H](C)CC)[C@@H](C)CC)C(=O)O` [Example 298]: the inhibitory constant (Ki) in test [1] was found to be 0.119 nM; in test [2], 0.0131 nM. The Emax is 95% at hGIPR (setting [9]) and 97.4% on hGIPR (setting [8]). For the same compound, the EC50 at hGIPR (setting [4]) was 0.0107 nM; on hGCGR (setting [10]) it was more than 9950 nM; at hGCGR (setting [6]), more than 9950 nM; at hGLP-1R (setting [4]), 0.19 nM.

For `CCCCCCCCCCCC(=O)N[C@@H](CCC(=O)NCCOCCOCC(=O)NCCOCCOCC(=O)NCCCC[C@H](NC(=O)[C@H](CCCN)NC(=O)[C@H](CC(=O)O)NC(=O)[C@H](CC(C)C)NC(=O)[C@](C)(CC(C)C)NC(=O)[C@@H](NC(=O)C(C)(C)NC(=O)[C@H](Cc1ccncc1)NC(=O)[C@H](CC(=O)O)NC(=O)[C@H](CO)NC(=O)[C@@H](NC(=O)[C@](C)(Cc1ccccc1F)NC(=O)[C@@H](NC(=O)CNC(=O)[C@H](CCC(=O)O)NC(=O)C(C)(C)NC(=O)[C@@H](N)Cc1ccc(O)cc1)[C@@H](C)O)[C@@H](C)O)[C@@H](C)CC)C(=O)N[C@@H](C)C(=O)N[C@@H](CCC(N)=O)C(=O)NC(C)(C)C(=O)N[C@@H](CCCCNC(=O)COCCOCCNC(=O)COCCOCCNC(=O)CC[C@H](NC(=O)CCCCCCCCCCC)C(=O)O)C(=O)N[C@@H](Cc1ccccc1)C(=O)N[C@H](C(=O)N[C@H](CCC(=O)O)C(=O)N[C@@](C)(Cc1ccc(O)cc1)C(=O)N[C@@H](CC(C)C)C(=O)N[C@H](C(=O)N[C@@H](CCC(=O)O)C(=O)NCC(=O)NCC(=O)N1CCC[C@H]1C(=O)N[C@@H](CO)C(=O)N[C@@H](CO)C(=O)NCC(=O)N[C@@H](C)C(=O)N1CCC[C@H]1C(=O)N1CCC[C@H]1C(=O)N1CCC[C@H]1C(=O)N[C@@H](CO)C(N)=O)[C@@H](C)CC)[C@@H](C)CC)C(=O)O` [Example 322], the Ki in test [1] amounted to 0.234 nM; in test [2], 0.0162 nM. The Emax on hGIPR (setting [9]) turned out to be 89.7%; at hGLP-1R (setting [9]) it was 94.5%; at hGLP-1R (setting [8]) it was 100%. Moreover, the EC50 is 0.00937 nM on hGIPR (setting [4]), more than 9950 nM on hGCGR (setting [10]), more than 9950 nM on hGCGR (setting [6]) and 0.144 nM on hGLP-1R (setting [4]).

As to `CCCCCCCCCCCC(=O)N[C@@H](CCC(=O)NCCOCCOCC(=O)NCCOCCOCC(=O)NCCOCCOCC(=O)NCCCC[C@H](NC(=O)[C@H](CCCN)NC(=O)[C@H](CC(=O)O)NC(=O)[C@H](CC(C)C)NC(=O)[C@](C)(CC(C)C)NC(=O)[C@@H](NC(=O)C(C)(C)NC(=O)[C@H](Cc1ccncc1)NC(=O)[C@H](CC(=O)O)NC(=O)[C@H](CO)NC(=O)[C@@H](NC(=O)[C@](C)(Cc1ccccc1F)NC(=O)[C@@H](NC(=O)CNC(=O)[C@H](CCC(=O)O)NC(=O)C(C)(C)NC(=O)[C@@H](N)Cc1ccc(O)cc1)[C@@H](C)O)[C@@H](C)O)[C@@H](C)CC)C(=O)N[C@@H](C)C(=O)N[C@@H](CCC(N)=O)C(=O)NC(C)(C)C(=O)N[C@@H](CCCCNC(=O)COCCOCCNC(=O)COCCOCCNC(=O)COCCOCCNC(=O)CC[C@H](NC(=O)CCCCCCCCCCC)C(=O)O)C(=O)N[C@@H](Cc1ccccc1)C(=O)N[C@H](C(=O)N[C@H](CCC(=O)O)C(=O)N[C@@](C)(Cc1ccc(O)cc1)C(=O)N[C@@H](CC(C)C)C(=O)N[C@H](C(=O)N[C@@H](CCCN)C(=O)NCC(=O)NCC(=O)N1CCC[C@H]1C(=O)N[C@@H](CO)C(=O)N[C@@H](CO)C(=O)NCC(=O)N[C@@H](C)C(=O)N1CCC[C@H]1C(=O)N1CCC[C@H]1C(=O)N1CCC[C@H]1C(=O)N[C@@H](CO)C(N)=O)[C@@H](C)CC)[C@@H](C)CC)C(=O)O` [Example 433], the inhibition constant Ki in test [1] worked out at 0.187 nM; in test [2] it was 0.0175 nM. The Emax stood at 100% on hGIPR (setting [3]) and 94% at hGIPR (setting [8]). Further, the half-maximal effective concentration (EC50) is 0.00972 nM on hGIPR (setting [4]); more than 9950 nM on hGCGR (setting [6]); more than 9950 nM at hGCGR (setting [7]); 0.128 nM on hGLP-1R (setting [4]); 2.63 nM at hGLP-1R (setting [5]).
